Results reported in PubChem BioAssay (NCI).
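Values below derive from 48-hour exposures of cells grown in 96-well plates, with endpoints linearly interpolated between the two concentrations bracketing the appropriate inhibition level. GI50 marks 50% less growth. TGI denotes the concentration required for complete inhibition of growth.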

test system: OVCAR-3 ovarian; experiment: NCI-60 cell line screen, 48 h

SMILES | TGI | GI50
COc1cc2ccccc2oc1=O | > 100 µM | 
Nc1nc(N)c2nc(CNc3ccc(C(=O)NC(CC(=O)O)C(=O)O)cc3)cnc2n1 (stereo not given) | > 100 µM | 0.694 µM
O=C1c2cccc(NCCN=Cc3cc([N+](=O)[O-])ccc3O)c2C(=O)c2c(NCCN=Cc3cc([N+](=O)[O-])ccc3O)cccc21 | 72 µM | 4.79 µM
CC(=O)OC[C@]12CC[C@@H](C(=O)CBr)[C@@H]1[C@H]1CC[C@@H]3[C@@]4(C)CCCNC(C)(C)[C@@H]4CC[C@@]3(C)[C@]1(C)CC2 | 3.85 µM | 1.93 µM
COc1cc2c3c(n(CCCCN)c(=O)c2cc1OC)-c1cc2c(cc1C3=O)OCO2 | 2.67 µM | 1.01 µM
C=CCC1(O)c2ccccc2C(=O)c2c(NCCN(CC(=O)OCC)CC(=O)OCC)cccc21 (stereo not given) | > 100 µM | > 100 µM
COc1cccc(-n2nc(C)c3c(N/N=C(\C)c4ccncc4)ncnc32)c1 | > 25 µM | > 25 µM
NC(=O)c1ccccc1Nc1ccc2nnc(-c3ccncc3)n2n1 | 26.6 µM | 13.7 µM
Cc1ccc(-c2nc(C#N)c(S(=O)(=O)n3nc(C)cc3N)o2)cc1 | 3.73 µM | 2.08 µM
CCn1cnc(C[C@H](NC(=O)[C@@H](NC(=O)Nc2cc(C(F)(F)F)cc(C(F)(F)F)c2)C(C)C)C(=O)OC)c1 | 3.44 µM | 1.82 µM
O=C(Nc1cccc(-n2cc(-c3ccncc3)c(-c3ccc(Cl)c(O)c3)n2)c1)c1ccc(N2CCOCC2)c(C(F)(F)F)c1 | > 50 µM | 4.81 µM
COc1cccc2c1ccc1nc3cccc(C(=O)N[C@H](C)CN(C)C)c3nc12 | 0.511 µM | 0.102 µM
NC(=O)c1ccc(I)c(N=O)c1 | 71.5 µM | 27.4 µM
COc1ccc2c(=O)cc(-c3ccncc3)oc2c1OC | 64.8 µM | 
COC(=O)c1ccccc1OCc1cc(=O)oc2ccc(C)cc12 | > 100 µM | 
COc1ccc(-c2nc(-c3ccccc3)c(-c3ccccc3)[nH]2)cc1OC1CCCC1 | > 100 µM | > 100 µM
COC(=O)[C@@]12OC[C@]34[C@H]([C@@H](O)[C@@H]1O)[C@@]1(C)[C@H](O)C(=O)C=C(C)[C@@H]1C[C@H]3OC(=O)C(OC(C)=O)[C@@H]24 (stereo not given in full) | 0.0714 µM | 0.0248 µM

test system: SK-MEL-28 melanoma; experiment: NCI-60 cell line screen, 48 h

SMILES | TGI | GI50
COc1cc2ccccc2oc1=O | > 100 µM | 
Nc1nc(N)c2nc(CNc3ccc(C(=O)NC(CC(=O)O)C(=O)O)cc3)cnc2n1 (stereo not given) | > 100 µM | > 100 µM
O=C1c2cccc(NCCN=Cc3cc([N+](=O)[O-])ccc3O)c2C(=O)c2c(NCCN=Cc3cc([N+](=O)[O-])ccc3O)cccc21 | > 100 µM | 14.9 µM
CC(=O)OC[C@]12CC[C@@H](C(=O)CBr)[C@@H]1[C@H]1CC[C@@H]3[C@@]4(C)CCCNC(C)(C)[C@@H]4CC[C@@]3(C)[C@]1(C)CC2 | 4.23 µM | 2.23 µM
COc1cc2c3c(n(CCCCN)c(=O)c2cc1OC)-c1cc2c(cc1C3=O)OCO2 | 12.4 µM | 1.56 µM
C=CCC1(O)c2ccccc2C(=O)c2c(NCCN(CC(=O)OCC)CC(=O)OCC)cccc21 (stereo not given) | > 100 µM | > 100 µM
COc1cccc(-n2nc(C)c3c(N/N=C(\C)c4ccncc4)ncnc32)c1 | > 25 µM | > 25 µM
NC(=O)c1ccccc1Nc1ccc2nnc(-c3ccncc3)n2n1 | 29.8 µM | 15.3 µM
Cc1ccc(-c2nc(C#N)c(S(=O)(=O)n3nc(C)cc3N)o2)cc1 | 25.6 µM | 12.7 µM
CCn1cnc(C[C@H](NC(=O)[C@@H](NC(=O)Nc2cc(C(F)(F)F)cc(C(F)(F)F)c2)C(C)C)C(=O)OC)c1 | 4.28 µM | 1.98 µM
O=C(Nc1cccc(-n2cc(-c3ccncc3)c(-c3ccc(Cl)c(O)c3)n2)c1)c1ccc(N2CCOCC2)c(C(F)(F)F)c1 | 6.04 µM | 1.5 µM
COc1cccc2c1ccc1nc3cccc(C(=O)N[C@H](C)CN(C)C)c3nc12 | 1.51 µM | 0.221 µM
NC(=O)c1ccc(I)c(N=O)c1 | > 100 µM | 46.9 µM
COc1ccc2c(=O)cc(-c3ccncc3)oc2c1OC | 93.1 µM | 
COC(=O)c1ccccc1OCc1cc(=O)oc2ccc(C)cc12 | > 100 µM | 
COc1ccc(-c2nc(-c3ccccc3)c(-c3ccccc3)[nH]2)cc1OC1CCCC1 | > 100 µM | > 100 µM
COC(=O)[C@@]12OC[C@]34[C@H]([C@@H](O)[C@@H]1O)[C@@]1(C)[C@H](O)C(=O)C=C(C)[C@@H]1C[C@H]3OC(=O)C(OC(C)=O)[C@@H]24 (stereo not given in full) | 0.0642 µM | 0.019 µM

test system: NCI/ADR-RES ovarian; experiment: NCI-60 cell line screen, 48 h

SMILES | TGI | GI50
COc1cc2ccccc2oc1=O | > 100 µM | 
Nc1nc(N)c2nc(CNc3ccc(C(=O)NC(CC(=O)O)C(=O)O)cc3)cnc2n1 (stereo not given) | > 100 µM | 0.638 µM
O=C1c2cccc(NCCN=Cc3cc([N+](=O)[O-])ccc3O)c2C(=O)c2c(NCCN=Cc3cc([N+](=O)[O-])ccc3O)cccc21 | > 100 µM | > 100 µM
CC(=O)OC[C@]12CC[C@@H](C(=O)CBr)[C@@H]1[C@H]1CC[C@@H]3[C@@]4(C)CCCNC(C)(C)[C@@H]4CC[C@@]3(C)[C@]1(C)CC2 | 31.2 µM | 4.89 µM
COc1cc2c3c(n(CCCCN)c(=O)c2cc1OC)-c1cc2c(cc1C3=O)OCO2 | 11.2 µM | 2.34 µM
C=CCC1(O)c2ccccc2C(=O)c2c(NCCN(CC(=O)OCC)CC(=O)OCC)cccc21 (stereo not given) | > 100 µM | > 100 µM
COc1cccc(-n2nc(C)c3c(N/N=C(\C)c4ccncc4)ncnc32)c1 | > 25 µM | > 25 µM
NC(=O)c1ccccc1Nc1ccc2nnc(-c3ccncc3)n2n1 | 44.7 µM | 14.7 µM
Cc1ccc(-c2nc(C#N)c(S(=O)(=O)n3nc(C)cc3N)o2)cc1 | 78.5 µM | 19 µM
CCn1cnc(C[C@H](NC(=O)[C@@H](NC(=O)Nc2cc(C(F)(F)F)cc(C(F)(F)F)c2)C(C)C)C(=O)OC)c1 | > 10 µM | > 10 µM
O=C(Nc1cccc(-n2cc(-c3ccncc3)c(-c3ccc(Cl)c(O)c3)n2)c1)c1ccc(N2CCOCC2)c(C(F)(F)F)c1 | > 50 µM | 2.86 µM
COc1cccc2c1ccc1nc3cccc(C(=O)N[C@H](C)CN(C)C)c3nc12 | 0.554 µM | 0.0721 µM
NC(=O)c1ccc(I)c(N=O)c1 | > 100 µM | 44.9 µM
COc1ccc2c(=O)cc(-c3ccncc3)oc2c1OC | > 100 µM | 
COC(=O)c1ccccc1OCc1cc(=O)oc2ccc(C)cc12 | > 100 µM | 
COc1ccc(-c2nc(-c3ccccc3)c(-c3ccccc3)[nH]2)cc1OC1CCCC1 | > 100 µM | > 100 µM
COC(=O)[C@@]12OC[C@]34[C@H]([C@@H](O)[C@@H]1O)[C@@]1(C)[C@H](O)C(=O)C=C(C)[C@@H]1C[C@H]3OC(=O)C(OC(C)=O)[C@@H]24 (stereo not given in full) | 8.53 µM | 0.904 µM

test system: RPMI-8226 leukemia; experiment: NCI-60 cell line screen, 48 h

SMILES | TGI | GI50
COc1cc2ccccc2oc1=O | > 100 µM | 
Nc1nc(N)c2nc(CNc3ccc(C(=O)NC(CC(=O)O)C(=O)O)cc3)cnc2n1 (stereo not given) | > 100 µM | 6.43 µM
O=C1c2cccc(NCCN=Cc3cc([N+](=O)[O-])ccc3O)c2C(=O)c2c(NCCN=Cc3cc([N+](=O)[O-])ccc3O)cccc21 | 4.35 µM | 1.03 µM
CC(=O)OC[C@]12CC[C@@H](C(=O)CBr)[C@@H]1[C@H]1CC[C@@H]3[C@@]4(C)CCCNC(C)(C)[C@@H]4CC[C@@]3(C)[C@]1(C)CC2 | 6.69 µM | 2.36 µM
COc1cc2c3c(n(CCCCN)c(=O)c2cc1OC)-c1cc2c(cc1C3=O)OCO2 | 1.31 µM | 0.351 µM
C=CCC1(O)c2ccccc2C(=O)c2c(NCCN(CC(=O)OCC)CC(=O)OCC)cccc21 (stereo not given) | > 100 µM | 98.5 µM
COc1cccc(-n2nc(C)c3c(N/N=C(\C)c4ccncc4)ncnc32)c1 | > 25 µM | > 25 µM
NC(=O)c1ccccc1Nc1ccc2nnc(-c3ccncc3)n2n1 | 17.4 µM | 3.43 µM
Cc1ccc(-c2nc(C#N)c(S(=O)(=O)n3nc(C)cc3N)o2)cc1 | 10.1 µM | 3.07 µM
CCn1cnc(C[C@H](NC(=O)[C@@H](NC(=O)Nc2cc(C(F)(F)F)cc(C(F)(F)F)c2)C(C)C)C(=O)OC)c1 | 8.45 µM | 2.76 µM
O=C(Nc1cccc(-n2cc(-c3ccncc3)c(-c3ccc(Cl)c(O)c3)n2)c1)c1ccc(N2CCOCC2)c(C(F)(F)F)c1 | 12.5 µM | 1.4 µM
COc1cccc2c1ccc1nc3cccc(C(=O)N[C@H](C)CN(C)C)c3nc12 | 0.647 µM | 0.0918 µM
NC(=O)c1ccc(I)c(N=O)c1 | 88.7 µM | 36.9 µM
COc1ccc2c(=O)cc(-c3ccncc3)oc2c1OC | > 100 µM | 
COC(=O)c1ccccc1OCc1cc(=O)oc2ccc(C)cc12 | > 100 µM | 
COc1ccc(-c2nc(-c3ccccc3)c(-c3ccccc3)[nH]2)cc1OC1CCCC1 | > 100 µM | 38.1 µM
COC(=O)[C@@]12OC[C@]34[C@H]([C@@H](O)[C@@H]1O)[C@@]1(C)[C@H](O)C(=O)C=C(C)[C@@H]1C[C@H]3OC(=O)C(OC(C)=O)[C@@H]24 (stereo not given in full) | 0.0396 µM | 0.017 µM

test system: HS 578T breast; experiment: NCI-60 cell line screen, 48 h

SMILES | TGI | GI50
COc1cc2ccccc2oc1=O | > 100 µM | 
Nc1nc(N)c2nc(CNc3ccc(C(=O)NC(CC(=O)O)C(=O)O)cc3)cnc2n1 (stereo not given) | > 100 µM | 59.2 µM
O=C1c2cccc(NCCN=Cc3cc([N+](=O)[O-])ccc3O)c2C(=O)c2c(NCCN=Cc3cc([N+](=O)[O-])ccc3O)cccc21 | 29.4 µM | 2.74 µM
CC(=O)OC[C@]12CC[C@@H](C(=O)CBr)[C@@H]1[C@H]1CC[C@@H]3[C@@]4(C)CCCNC(C)(C)[C@@H]4CC[C@@]3(C)[C@]1(C)CC2 | > 100 µM | 15.9 µM
COc1cc2c3c(n(CCCCN)c(=O)c2cc1OC)-c1cc2c(cc1C3=O)OCO2 | 11.8 µM | 4.6 µM
C=CCC1(O)c2ccccc2C(=O)c2c(NCCN(CC(=O)OCC)CC(=O)OCC)cccc21 (stereo not given) | > 100 µM | > 100 µM
COc1cccc(-n2nc(C)c3c(N/N=C(\C)c4ccncc4)ncnc32)c1 | > 25 µM | > 25 µM
NC(=O)c1ccccc1Nc1ccc2nnc(-c3ccncc3)n2n1 | 58.3 µM | 18.1 µM
Cc1ccc(-c2nc(C#N)c(S(=O)(=O)n3nc(C)cc3N)o2)cc1 | 58.1 µM | 21.3 µM
CCn1cnc(C[C@H](NC(=O)[C@@H](NC(=O)Nc2cc(C(F)(F)F)cc(C(F)(F)F)c2)C(C)C)C(=O)OC)c1 | 6.11 µM | 2.18 µM
O=C(Nc1cccc(-n2cc(-c3ccncc3)c(-c3ccc(Cl)c(O)c3)n2)c1)c1ccc(N2CCOCC2)c(C(F)(F)F)c1 | > 50 µM | 1.85 µM
COc1cccc2c1ccc1nc3cccc(C(=O)N[C@H](C)CN(C)C)c3nc12 | 3.42 µM | 0.166 µM
NC(=O)c1ccc(I)c(N=O)c1 | > 100 µM | 38.5 µM
COc1ccc2c(=O)cc(-c3ccncc3)oc2c1OC | 53.7 µM | 
COC(=O)c1ccccc1OCc1cc(=O)oc2ccc(C)cc12 | > 100 µM | 
COc1ccc(-c2nc(-c3ccccc3)c(-c3ccccc3)[nH]2)cc1OC1CCCC1 | > 100 µM | > 100 µM
COC(=O)[C@@]12OC[C@]34[C@H]([C@@H](O)[C@@H]1O)[C@@]1(C)[C@H](O)C(=O)C=C(C)[C@@H]1C[C@H]3OC(=O)C(OC(C)=O)[C@@H]24 (stereo not given in full) | 0.0523 µM | 0.0193 µM
